Test results reported in article PMC8433221 (Scientific Reports, 2021).

Biological target: T1, PptAb-ACP complex (S2105A ACP) (Mycobacteroides abscessus, UniProt B1MD73)
T1 construct: gene MAB_3117c

CCNC(=N)NC(=O)Nc1c(CC)cccc1CC [compound 1, 1-[(2,6-diethylphenyl)-3-N-ethylcarbamimodoyl]urea]
X-ray crystallography, 2.5 Å, co-crystallisation: complex formed between PptAb and its cognate ACP domain in the presence of CoA
